Laboratory results: US12479831B2, “Substituted N(-methyl-D3)pyridazine-3-carboxamide or M-(methyl-D3)-nicotinamide compounds as IL-12, IL-23 and/or IFNα modulators” (BRISTOL-MYERS SQUIBB COMPANY, priority 2020, dated 2025)

test system: IFNα-Induced STAT Phosphorylation in Human Whole Blood; assay: IFNα-Induced STAT Phosphorylation in Human Whole Blood; type: cell-based; details: 1 h incubation with compound, 1000 U/mL recombinant human IFNα A/D for 15 min, pSTAT5 (pY694) median fluorescence intensity in CD3 positive population, read-out: hWB IC50
Method: IFNα-Induced STAT Phosphorylation in Human Whole Blood
After an hour long incubation with compound, human whole blood (drawn with either EDTA or ACD-A as anti-coagulant) was stimulated with 1000 U/mL recombinant human IFNα A/D (R&D Systems 11200-2) for 15 min. The stimulation was stopped by adding Fix/Lyse buffer (BD 558049). Cells were stained with a CD3 FITC antibody (BD 555916), washed, and permeabilized on ice using Perm III buffer (BD 558050). […] The amount of pSTAT5 expression was quantitated by median fluorescence intensity after gating on the CD3 positive population.
IFNα-Induced STAT Phosphorylation in Human Whole Blood Inhibition Data

| SMILES | IC50 |
| --- | --- |
| [2H]C([2H])([2H])NC(=O)c1nnc(Nc2cc(C(C)(C)O)n(C)n2)cc1Nc1cccc(-c2ncccn2)c1OC [Example 81, 6-((5-(2-hydroxypropan-2-yl)-1-methyl-1H-pyrazol-3-yl)amino)-4-((2-methoxy-3-(pyrimidin-2-yl)phenyl)amino)-N-(methyl-d3)pyridazine-3-carboxamide] | 0.014 µM |
| [2H]C([2H])([2H])NC(=O)c1cnc(Nc2cnc(C#N)cn2)cc1Nc1cccc(-c2ncc(F)cn2)c1OC [Example 71, 6-((5-cyanopyrazin-2-yl)amino)-4-((3-(5-fluoropyrimidin-2-yl)-2-methoxyphenyl)amino)-N-(methyl-d3)nicotinamide] | 0.278 µM |
| [2H]C([2H])([2H])NC(=O)c1nnc(NC(=O)C2CC2)cc1Nc1cccc(-c2cnc(N(C)C(C)=O)cn2)c1OC [Example 56, 6-(Cyclopropanecarboxamido)-4-((2-methoxy-3-(5-(N-methylacetamido)pyrazin-2-yl)phenyl)amino)-N-(methyl-d3)pyridazine-3-carboxamide] | 0.117 µM |
| [2H]C([2H])([2H])NC(=O)c1nnc(NC(=O)C2CC2)cc1Nc1cccc(-c2ccc(C(=O)N3CCCC3)cn2)c1OC [Example 45] | 0.218 µM |
| [2H]C([2H])([2H])NC(=O)c1nnc(Nc2cc(C(C)(C)O)n(C)n2)cc1Nc1cc(F)cc(-c2ncc(F)cn2)c1OC [Example 83, 4-((5-fluoro-3-(5-fluoropyrimidin-2-yl)-2-methoxyphenyl)amino)-6-((5-(2-hydroxypropan-2-yl)-1-methyl-1H-pyrazol-3-yl)amino)-N-(methyl-d3)pyridazine-3-carboxamide] | 0.077 µM |
| [2H]C([2H])([2H])NC(=O)c1nnc(Nc2cc(C#N)n(C)n2)cc1Nc1cccc(-c2ncccn2)c1OC [Example 80, 6-((5-cyano-1-methyl-1H-pyrazol-3-yl)amino)-4-((2-methoxy-3-(pyrimidin-2-yl)phenyl)amino)-N-(methyl-d3)pyridazine-3-carboxamide] | 0.08 µM |
| [2H]C([2H])([2H])NC(=O)c1nnc(NC(=O)C2CC2)cc1Nc1cccc(-c2cnc(N3CCN(C)CC3)cn2)c1OC [Example 58, 6-(cyclopropanecarboxamido)-4-((2-methoxy-3-(5-(4-methylpiperazin-1-yl)pyrazin-2-yl)phenyl)amino)-N-(methyl-d3)pyridazine-3-carboxamide] | 0.267 µM |
| [2H]C([2H])([2H])NC(=O)c1cnc(NC(=O)C2CC2)cc1Nc1cccc(-c2ncc(N3CCOCC3)cn2)c1OC [Example 16, 6-(cyclopropanecarboxamido)-4-((2-methoxy-3-(5-morpholinopyrimidin-2-yl)phenyl)amino)-N-(methyl-d3)nicotinamide] | 0.054 µM |
| [2H]C([2H])([2H])NC(=O)c1nnc(NC(=O)C2CC2)cc1Nc1cccc(-c2ncc(S(C)(=O)=O)cn2)c1OC [Example 111] | 0.216 µM |
| [2H]C([2H])([2H])NC(=O)c1nnc(Nc2cn(CC)nn2)cc1Nc1cccc(-c2ncc(F)cn2)c1OC [Example 89, 6-((1-ethyl-1H-1,2,3-triazol-4-yl)amino)-4-((3-(5-fluoropyrimidin-2-yl)-2-methoxyphenyl)amino)-N-(methyl-d3)pyridazine-3-carboxamide] | 0.25 µM |
| [2H]C([2H])([2H])NC(=O)c1nnc(Nc2cc3n(n2)CCN(C)C3=O)cc1Nc1cccc(-c2ncccn2)c1OC [Example 108, 4-((2-Methoxy-3-(pyrimidin-2-yl)phenyl)amino)-N-(methyl-d3)-6-((5-methyl-4-oxo-4,5,6,7-tetrahydropyrazolo[1,5-a]pyrazin-2-yl)amino)pyridazine-3-carboxamide] | 0.137 µM |
| [2H]C([2H])([2H])NC(=O)c1nnc(Nc2cnn(C)n2)cc1Nc1cccc(-c2ncc(F)cn2)c1OC [Example 90, 4-((3-(5-fluoropyrimidin-2-yl)-2-methoxyphenyl)amino)-N-(methyl-d3)-6-((2-methyl-2H-1,2,3-triazol-4-yl)amino)pyridazine-3-carboxamide] | 0.17 µM |

The remaining molecules from weak to strong by IC50, led by results:

| IC50 | SMILES |
| --- | --- |
| 0.426 µM | [2H]C([2H])([2H])NC(=O)c1nnc(NC(=O)C2CC2)cc1Nc1cccc(-c2ncc(C#N)cn2)c1OC [Example 2, 4-((3-(5-cyanopyrimidin-2-yl)-2-methoxyphenyl)amino)-6-(cyclopropanecarboxamido)-N-(methyl-d3)pyridazine-3-carboxamide] |
| 0.36 µM | [2H]C([2H])([2H])NC(=O)c1nnc(NC(=O)C2CC2)cc1Nc1cccc(-c2cnc(C(=O)N3CCC3)cn2)c1OC [Example 40, 4-((3-(5-(azetidine-1-carbonyl)pyrazin-2-yl)-2-methoxyphenyl)amino)-6-(cyclopropanecarboxamido)-N-(methyl-d3)pyridazine-3-carboxamide] |
| 0.214 µM | [2H]C([2H])([2H])NC(=O)c1nnc(NC(=O)C2CC2)cc1Nc1cccc(-c2ccc(=O)n(C)n2)c1OC [Example 9, 6-(cyclopropanecarboxamido)-4-((2-methoxy-3-(1-methyl-6-oxo-1,6-dihydropyridazin-3-yl)phenyl)amino)-N-(methyl-d3)pyridazine-3-carboxamide] |
| 0.204 µM | [2H]C([2H])([2H])NC(=O)c1nnc(NC(=O)C2CC2)cc1Nc1cccc(-c2cc(=O)n(C)cn2)c1OC [Example 12, 6-(cyclopropanecarboxamido)-4-((2-methoxy-3-(1-methyl-6-oxo-1,6-dihydropyrimidin-4-yl)phenyl)amino)-N-(methyl-d3)pyridazine-3-carboxamide] |
| 0.17 µM | [2H]C([2H])([2H])NC(=O)c1nnc(NC(=O)C2CC2)cc1Nc1cc(F)cc(-c2ncc(C3(O)CCC3)cn2)c1OC [Example 28, 6-(cyclopropanecarboxamido)-4-((5-fluoro-3-(5-(1-hydroxycyclobutyl)pyrimidin-2-yl)-2-methoxyphenyl)amino)-N-(methyl-d3)pyridazine-3-carboxamide] |
| 0.167 µM | [2H]C([2H])([2H])NC(=O)c1nnc(Nc2cn(C)nn2)cc1Nc1cccc(-c2ncc(F)cn2)c1OC [Example 91, 4-((3-(5-fluoropyrimidin-2-yl)-2-methoxyphenyl)amino)-N-(methyl-d3)-6-((1-methyl-1H-1,2,3-triazol-4-yl)amino)pyridazine-3-carboxamide] |
| 0.167 µM | [2H]C([2H])([2H])NC(=O)c1nnc(NC(=O)C2CC2)cc1Nc1cc(F)cc(-c2cnc(C(C)O)cn2)c1OC (stereo not drawn) [Example 24, 6-(cyclopropanecarboxamido)-4-((5-fluoro-3-(5-(1-hydroxyethyl)pyrazin-2-yl)-2-methoxyphenyl)amino)-N-(methyl-d3)pyridazine-3-carboxamide] |
| 0.136 µM | [2H]C([2H])([2H])NC(=O)c1nnc(Nc2cn(CC)nn2)cc1Nc1cc(F)cc(-c2ncccn2)c1OC [Example 92, 6-((1-ethyl-1H-1,2,3-triazol-4-yl)amino)-4-((5-fluoro-2-methoxy-3-(pyrimidin-2-yl)phenyl)amino)-N-(methyl-d3)pyridazine-3-carboxamide] |
| 0.109 µM | [2H]C([2H])([2H])NC(=O)c1nnc(NC(=O)C2CC2)cc1Nc1cc(F)cc(-c2ccc(C(=O)N(C)C)cn2)c1OC [Example 44, 6-(cyclopropanecarboxamido)-4-((3-(5-(dimethylcarbamoyl)pyridin-2-yl)-5-fluoro-2-methoxyphenyl)amino)-N-(methyl-d3)pyridazine-3-carboxamide] |
| 0.096 µM | [2H]C([2H])([2H])NC(=O)c1nnc(Nc2ccc(OC)nn2)cc1Nc1cccc(-c2ncccn2)c1OC [Example 96, 4-((2-methoxy-3-(pyrimidin-2-yl)phenyl)amino)-6-((6-methoxypyridazin-3-yl)amino)-N-(methyl-d3)pyridazine-3-carboxamide] |
| 0.075 µM | [2H]C([2H])([2H])NC(=O)c1cnc(Nc2cc(C(F)(F)F)n(C)n2)cc1Nc1cccc(-c2ncc(F)cn2)c1OC [Example 64, 4-((3-(5-fluoropyrimidin-2-yl)-2-methoxyphenyl)amino)-N-(methyl-d3)-6-((1-methyl-5-(trifluoromethyl)-1H-pyrazol-3-yl)amino)nicotinamide] |
| 0.071 µM | [2H]C([2H])([2H])NC(=O)c1nnc(NC(=O)C2CC2)cc1Nc1cc(F)cc(-c2ncc(C(C)(O)CF)cn2)c1OC (stereo not drawn) [Example 32, 6-(cyclopropanecarboxamido)-4-((5-fluoro-3-(5-(1-fluoro-2-hydroxypropan-2-yl)pyrimidin-2-yl)-2-methoxyphenyl)amino)-N-(methyl-d3)pyridazine-3-carboxamide] |
| 0.056 µM | [2H]C([2H])([2H])NC(=O)c1nnc(NC(=O)C2CC2)cc1Nc1cc(F)cc(-c2ccc(C(=O)N(C)C)nn2)c1OC [Example 42, 6-(cyclopropanecarboxamido)-4-((3-(6-(dimethylcarbamoyl)pyridazin-3-yl)-5-fluoro-2-methoxyphenyl)amino)-N-(methyl-d3)pyridazine-3-carboxamide] |
| 0.049 µM | [2H]C([2H])([2H])NC(=O)c1nnc(Nc2cc(C(C)(C)O)n(C)n2)cc1Nc1cccc(-c2ncc(F)cn2)c1OC [Example 82, 4-((3-(5-fluoropyrimidin-2-yl)-2-methoxyphenyl)amino)-6-((5-(2-hydroxypropan-2-yl)-1-methyl-1H-pyrazol-3-yl)amino)-N-(methyl-d3)pyridazine-3-carboxamide] |
| 0.041 µM | [2H]C([2H])([2H])NC(=O)c1nnc(NC(=O)C2CC2)cc1Nc1cccc(-c2ncc(C(=O)N(C)CC)cn2)c1OC [Example 50, 6-(Cyclopropanecarboxamido)-4-((3-(5-(ethyl(methyl)carbamoyl)pyrimidin-2-yl)-2-methoxyphenyl)amino)-N-(methyl-d3)pyridazine-3-carboxamide] |
